Data: US8450304B2, “4-azetidinyl-1-heteroaryl-cyclohexanol antagonists of CCR2” (Janssen Pharmaceutica N.V., priority 2008, dated 2013)

Molecular target: T1, CCR2 (Homo sapiens, UniProt P41597)
T1 construct: host or cells: THP-1 (human monocytic cell line), whole cells
Assay: MCP-1 Receptor Binding Assay in THP-1 Cells
Settings: 0.5 nM 125I labeled MCP-1, 2 hours at 30° C., read-out: Inhibition of MCP-1 Binding IC50, CCR2 Binding
Procedure: Compounds of the invention were subjected to various representative biological tests. […] MCP-1 Receptor Binding Assay in THP-1 Cells
Human monocytic cell line THP-1 cells were obtained from American Type Culture Collection (Manassas, Va., USA). […] The cell density was maintained […].
1 μM cold MCP-1 was used for nonspecific binding.

T1 sequence (P41597 whole entry): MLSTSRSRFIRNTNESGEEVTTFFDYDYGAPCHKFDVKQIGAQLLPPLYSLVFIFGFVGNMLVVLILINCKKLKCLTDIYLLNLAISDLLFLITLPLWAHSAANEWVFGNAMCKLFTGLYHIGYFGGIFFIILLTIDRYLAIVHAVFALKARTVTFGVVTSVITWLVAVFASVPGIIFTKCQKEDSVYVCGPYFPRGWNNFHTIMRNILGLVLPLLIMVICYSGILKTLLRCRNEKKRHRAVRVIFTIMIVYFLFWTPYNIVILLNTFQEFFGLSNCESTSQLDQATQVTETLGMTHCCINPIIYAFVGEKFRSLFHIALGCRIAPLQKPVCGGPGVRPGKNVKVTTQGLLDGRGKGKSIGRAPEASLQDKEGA

Compound	IC50
Cc1ccc(C2(O)CCC(N3CC(NC(=O)CNC(=O)c4cc(C(F)(F)F)ccc4C(F)(F)F)C3)CC2)cn1 (single isomer, unassigned) [Example 69a, N-({1-[4-Hydroxy-4-(6-methyl-pyridin-3-yl)-cyclohexyl]-azetidin-3-ylcarbamoyl}-methyl)-2,5-bis-trifluoromethyl-benzamide]	240 nM
O=C(CNC(=O)c1cccc(C(F)(F)F)c1)NC1CN(C2CCC(O)(c3ncc(CO)s3)CC2)C1 (single isomer, unassigned) [Example 35a, N-({1-[4-Hydroxy-4-(5-hydroxymethyl-thiazol-2-yl)-cyclohexyl]-azetidin-3-ylcarbamoyl}-methyl)-3-trifluoromethyl-benzamide]	240 nM
CC(C)(C)Oc1ncc(C2(O)CCC(N3CC(NC(=O)CNC(=O)c4cccc(C(F)(F)F)c4)C3)CC2)s1 (stereo not drawn) [Example 54, N-({1-[4-(2-tert-Butoxy-thiazol-5-yl)-4-hydroxy-cyclohexyl]-azetidin-3-ylcarbamoyl}-methyl)-3-trifluoromethyl-benzamide]	280 nM
Cc1ccc(C2(O)CCC(N3CC(NC(=O)CNC(=O)c4cc(C(F)(F)F)cc(C(F)(F)F)c4)C3)CC2)cn1 (single isomer, unassigned) [Example 66a, N-({1-[4-Hydroxy-4-(6-methyl-pyridin-3-yl)-cyclohexyl]-azetidin-3-ylcarbamoyl}-methyl)-3,5-bis-trifluoromethyl-benzamide]	330 nM
O=C(CNC(=O)c1cc(F)cc(C(F)(F)F)c1)NC1CN(C2CCC(O)(c3cncs3)CC2)C1 (stereo not drawn) [Example 65, 3-Fluoro-N-{[1-(4-hydroxy-4-thiazol-5-yl-cyclohexyl)-azetidin-3-ylcarbamoyl]-methyl}-5-trifluoromethyl-benzamide]	70 nM
O=C(CNC(=O)c1cccc(C(F)(F)F)c1)NC1CN(C2CCC(O)(c3cnc(O)s3)CC2)C1 (stereo not drawn) [Example 48, N-({1-[4-Hydroxy-4-(2-hydroxy-thiazol-5-yl)-cyclohexyl]-azetidin-3-ylcarbamoyl}-methyl)-3-trifluoromethyl-benzamide]	560 nM
CS(=O)(=O)c1ncc(C2(O)CCC(N3CC(NC(=O)CNC(=O)c4cccc(C(F)(F)F)c4)C3)CC2)s1 (single isomer, unassigned) [Example 47a, N-({1-[4-Hydroxy-4-(2-methanesulfonyl-thiazol-5-yl)-cyclohexyl]-azetidin-3-ylcarbamoyl}-methyl)-3-trifluoromethyl-benzamide]	260 nM
Cc1csc(C2(O)CCC(N3CC(NC(=O)CNC(=O)c4cccc(C(F)(F)F)c4)C3)CC2)n1 (single isomer, unassigned) [Example 38a, N-({1-[4-Hydroxy-4-(4-methyl-thiazol-2-yl)-cyclohexyl]-azetidin-3-ylcarbamoyl}-methyl)-3-trifluoromethyl-benzamide]	370 nM
O=C(CNC(=O)c1cccc(C(F)(F)F)c1)NC1CN(C2CCC(O)(c3nc4ccccc4o3)CC2)C1 (stereo not drawn) [Example 63, N-{[1-(4-Benzooxazol-2-yl-4-hydroxy-cyclohexyl)-azetidin-3-ylcarbamoyl]-methyl}-3-trifluoromethyl-benzamide]	1000 nM
C[S+]([O-])c1ncc(C2(O)CCC(N3CC(NC(=O)CNC(=O)c4cccc(C(F)(F)F)c4)C3)CC2)s1 (single isomer, unassigned) [Example 46, N-({1-[4-Hydroxy-4-(2-methanesulfinyl-thiazol-5-yl)-cyclohexyl]-azetidin-3-ylcarbamoyl}-methyl)-3-trifluoromethyl-benzamide]	660 nM
COc1ccc(C2(O)CCC(N3CC(NC(=O)CNC(=O)c4cc(F)cc(F)c4)C3)CC2)cn1 (stereo not drawn) [Example 19, 3,5-Difluoro-N-({1-[4-hydroxy-4-(6-methoxy-pyridin-3-yl)-cyclohexyl]-azetidin-3-ylcarbamoyl}-methyl)-benzamide]	4300 nM
COc1ccc(C2(O)CCC(N3CC(NC(=O)CNC(=O)c4cc(F)c(F)c(F)c4)C3)CC2)cn1 (stereo not drawn) [Example 17, 3,4,5-Trifluoro-N-({1-[4-hydroxy-4-(6-methoxy-pyridin-3-yl)-cyclohexyl]-azetidin-3-ylcarbamoyl}-methyl)-benzamide]	6400 nM
